What was measured:
lumbar spine (L2–L4) BMD = tested on: lumbar spine (L2–L4) BMD; parameters: method as in PMID 31243480; conditions: study of biosimilar approved in Japan; cited from earlier work
[1] = tested on: lumbar spine BMD in postmenopausal women with osteoporosis; assay: Percent change in lumbar spine BMD by DXA, phase III study; assay type: in vivo, human; conditions: for Percent change in lumbar spine BMD from baseline at Week 24, LSM ± SE / Percent change in lumbar spine BMD from baseline at Week 48, LSM ± SE: mITT population, LOCF, 20 μg s.c. once daily, DXA
Procedure: (§1) A multicenter, randomized, active‐controlled, double‐blind, parallel‐group phase III study was conducted between August 2018 and August 2020 at 17 sites in India. The study was conducted as per the principles and requirements of the Declaration of Helsinki (2013), and ICH‐GCP (E6‐R2, Step 4) guidelines along with the local regulatory requirements of Good Clinical Practices for Clinical Research in India (2004), ICMR guidelines for Biomedical Research on Human Subjects (2017) and New Drugs and Clinical Trial Rules, 2019 (CDSCO) and after approvals from respective Institutional Ethics Committees. The study was registered on the Clinical Trial Registry of India (CTRI/2018/05/014254).
(§2) After signing of the informed consent form, the subjects were screened to assess eligibility according to the study selection criteria. Postmenopausal women between the ages of 50–80 years with BMD T‐SCORE less than −2.5 at the lumbar spine or femoral neck were enrolled in the study.
(§3) All participants were provided with daily oral supplementation of 1000 mg of calcium and 500 IU of vitamin D3.
(§4) Medications known to affect bone metabolism, such as bisphosphonates, raloxifene, and denosumab, as well as drugs associated with reduced bone density, including glucocorticoids, aromatase inhibitors, and tamoxifen, were prohibited during the study. Throughout the treatment period, data were collected for primary and secondary endpoints. BMD was evaluated using dual‐energy X‐ray absorptiometry (DXA) as part of the efficacy assessments. Laboratory samples were collected during the treatment phase to support efficacy and safety evaluations, and all laboratory analyses were conducted at a central laboratory.
(§5) The primary endpoint of the study was the percent change in BMD of the lumbar spine and proximal femur, assessed using dual‐energy X‐ray absorptiometry (DXA) from baseline to Weeks 24 and 48. All DXA measurements were analyzed centrally, and the results were not disclosed to individual study centers to ensure unbiased interpretation. Secondary endpoints included the change from baseline in the pharmacodynamic parameter serum P1NP (procollagen type 1 N terminal propeptide), which was assessed at randomization and Weeks 12, 24, and 48. […] Serum biochemistry analyses were performed at baseline and at Weeks 4, 12, 24, and 48.
(§6) The efficacy analysis was performed on all the subjects in mITT (modified intention‐to‐treat) and PP (per protocol) population. Any missing postbaseline data were imputed using the last observation carried forward (LOCF) procedure. For the analysis of change from baseline to Week 12 (for P1NP), Week 24, and Week 48, a regression model with percent change from baseline as the response variable and the stratification variable was used for randomization, and treatment as independent variables was fit to test the mean difference between the two treatments in percent change. Adjusted least square mean (LSM) and the standard error values along with the p value and the 95% confidence interval (CI) of the difference were presented.

[2] = tested on: femoral neck BMD in postmenopausal women with osteoporosis; assay: Percent change in femoral neck BMD by DXA, phase III study; assay type: in vivo, human; conditions: for percent change in femoral neck BMD from baseline to 48 weeks (LSM ± SE): as given in the abstract, population not given; for percent change in femoral neck BMD from baseline to 48 weeks (LSM ± SE) / Percent change in femoral neck BMD from baseline at Week 24, LSM ± SE / Percent change in femoral neck BMD from baseline at Week 48, LSM ± SE: 20 μg s.c. once daily; for Percent change in femoral neck BMD from baseline at Week 24, LSM ± SE / Percent change in femoral neck BMD from baseline at Week 48, LSM ± SE: mITT population, LOCF, DXA
Procedure: as §1, §2, §3, §4, §5, §6

[3] = tested on: serum P1NP (procollagen type 1 N terminal propeptide); assay: Change from baseline in serum P1NP (bone turnover marker); assay type: in vivo, human; conditions: mITT population; 20 μg s.c. once daily
Procedure: as §3, §5, §6

[4] = Pharmacokinetic sub-study, plasma teriparatide on Day 1; assay type: in vivo, human; conditions: Day 1, 20 μg s.c., sampling to 240 min, noncompartmental, n = 15 per arm
Procedure: Pharmacokinetic (PK) assessments were performed on a subset of subjects who voluntarily consented to participate in an additional PK sub‐study alongside the main study. […] Blood samples for PK analysis were collected at the study site on Day 1 (Visit 2, i.e., the randomization visit) at specified time points: pre‐dose (within 30 min before the first investigational product [IP] administration) and at 5‐, 10‐, 20‐, 30‐, 45‐, 60‐, 90‐, 120‐, 180‐, and 240‐min post‐IP administration.
PK parameters (C max, AUC0–t , and T max) measured in plasma were calculated by noncompartmental methods, using Phoenix software for the PK population on Day 1. Descriptive statistics (number of subjects [n], mean, standard deviation, median, minimum, and maximum [range]) were calculated for all evaluable PK parameters by treatment group for the PK population.

lumbar spine BMD = tested on: lumbar spine BMD; parameters: method as in PMID 11346808; conditions: Fracture Prevention Trial; after 2 years of 20 μg daily; cited from earlier work
femoral neck BMD = tested on: femoral neck BMD; parameters: method as in PMID 11346808; conditions: Fracture Prevention Trial; after 2 years of 20 μg daily; cited from earlier work
[5] = parameters: method as in PMID 31243480; conditions: Fracture Prevention Trial; 20 μg; cited from earlier work
[6] = listed as Reference teriparatide (R)
[7] = biosimilar versus reference teriparatide, mITT
[8] = versus reference teriparatide, Week 24 and Week 48, mITT
[9] = listed as Proposed biosimilar teriparatide (T)

Row | Substance | percent change from baseline to 52 weeks in lumbar spine (L2–L4) BMD (mean ± SE) (lumbar spine (L2–L4) BMD) | Percent change in lumbar spine BMD from baseline at Week 24, LSM ± SE [1] [%] | Percent change in lumbar spine BMD from baseline at Week 48, LSM ± SE [1] [%] | percent change in femoral neck BMD from baseline to 48 weeks (LSM ± SE) [2] | Percent change in femoral neck BMD from baseline at Week 24, LSM ± SE [2] [%] | Percent change in femoral neck BMD from baseline at Week 48, LSM ± SE [2] | Serum P1NP concentration, change from baseline to Week 12 (LSM ± SE) [3] | Serum P1NP concentration, change from baseline to Week 24 (LSM ± SE) [3] | Serum P1NP concentration, change from baseline to Week 48 (LSM ± SE) [3] | also measured
1 | RGB‐10: proposed biosimilar teriparatide approved in Japan | 8.94% ± 6.19% |  |  |  |  |  |  |  |  | 
2 | teriparatide [Reference teriparatide, reference compound] | 9.65% ± 6.22% | 7.57 ± 1.13 | 9.22 ± 1.34 | 2.50% ± 1.20 | 1.79 ± 1.07 | 3.86 ± 1.24 (p = 0.024) % | 21.95 ± 6.02 | 51.07 ± 9.63 | 34.30 ± 9.98 | AUC(0–t), geometric least squares mean [4, 6]: 6387.59 min; C max, geometric least squares mean [4, 6]: 105.89 pg/mL
3 | teriparatide [Biosimilar teriparatide] |  | 7.16 ± 0.82 | 8.46 ± 0.94 | 3.94% ± 0.83 | 3.37 ± 0.78 | 4.03 ± 0.96 (p = 0.003) % | 24.38 ± 4.44 | 33.05 ± 7.00 | 48.52 ± 7.24 | estimated between-group difference (95% CI), lumbar spine BMD percent change to 48 weeks ([1]; abstract, biosimilar versus reference, noninferiority margin −2.43%): −0.56%; LSM difference (95% CI), lumbar spine BMD percent change at Week 24 [1, 7]: −0.410 (−3.191, 2.372); LSM difference (95% CI), lumbar spine BMD percent change at Week 48 [1, 7]: −0.754 (−4.011, 2.502); noninferiority in lumbar spine BMD percentage change [1, 8]: noninferiority; estimated between-group difference (95% CI), femoral neck BMD percent change to 48 weeks ([2]; abstract, biosimilar versus reference, noninferiority margin −1.44%): 1.44%; LSM difference (95% CI), femoral neck BMD percent change at Week 24 [2, 7]: 1.576 (−1.048, 4.199); LSM difference (95% CI), femoral neck BMD percent change at Week 48 [2, 7]: 0.173 (−3.146, 3.493); noninferiority in femoral neck BMD percentage change [2, 8]: noninferiority; AUC(0–t), geometric least squares mean [4, 9]: 6132.45 min; C max, geometric least squares mean [4, 9]: 108.79 pg/mL
4 | teriparatide |  |  |  |  |  |  |  |  |  | percentage increase in BMD at the lumbar spine (mean ± SE) (lumbar spine BMD): 9.7 ± 7.4%; percentage increase in BMD at the femoral neck (mean ± SE) (femoral neck BMD): 2.8 ± 5.7%; TEAE dizziness [5]: 9%; TEAE leg cramps [5]: 3%
